# Columns and labels:
# Assay in all cases: relative viability (nuclei count vs DMSO), 5 days (fraction); higher = more cells survive
# LU99A = tested on: LU99A
# Outline: (§1)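 Lung cancer cell lines in 1536-well plates got either a single drug or a fixed anchor-drug dose together with five library-drug doses (not always all listed) in √10 steps, by pin tool, on the day after seeding. Nuclei were counted after 5 days, and relative viability is the treated-to-vehicle ratio of nuclei counts. Values are medians of duplicate plates.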
# NCI-H1651 = tested on: NCI-H1651
# Outline: as §1
# NCI-H2085 = tested on: NCI-H2085
# Outline: as §1
# NCI-H596 = tested on: NCI-H596
# Outline: as §1
# NCI-H1755 = tested on: NCI-H1755
# Outline: as §1
# HCC-78 = tested on: HCC-78
# Outline: as §1
# NCI-H3122 = tested on: NCI-H3122
# Outline: as §1
# NCI-H322M = tested on: NCI-H322M
# Outline: as §1
# PC-3 [JPC-3] = tested on: PC-3 [JPC-3]
# Outline: as §1
# COR-L23 = tested on: COR-L23
# Outline: as §1
# NCI-H522 = tested on: NCI-H522
# Outline: as §1
# NCI-H460 = tested on: NCI-H460
# Outline: as §1
# H3255 = tested on: H3255
# Outline: as §1
# 201T = tested on: 201T
# Outline: as §1
# NCI-H1650 = tested on: NCI-H1650
# Outline: as §1
# NCI-H2087 = tested on: NCI-H2087
# Outline: as §1
# NCI-H358 = tested on: NCI-H358
# Outline: as §1
# NCI-H650 = tested on: NCI-H650
# Outline: as §1
# SK-LU-1 = tested on: SK-LU-1
# Outline: as §1
# HARA = tested on: HARA
# Outline: as §1
# NCI-H23 = tested on: NCI-H23
# Outline: as §1
# HCC-366 = tested on: HCC-366
# Outline: as §1
# NCI-H1793 = tested on: NCI-H1793
# Outline: as §1
smiles,measurement,setting,value
CCNC(=O)c1noc(-c2cc(C(C)C)c(O)cc2O)c1-c1ccc(CN2CCOCC2)cc1 [Luminespib] + O=C(CCCCCCC(=O)Nc1ccccc1)NO [Vorinostat] (partner 1 µM),relative viability,LU99A; first compound 0.002 µM,0.58
same,relative viability,LU99A; first compound 0.006325 µM,0.45
same,relative viability,LU99A; first compound 0.02 µM,0.263
same,relative viability,LU99A; first compound 0.06325 µM,0.201
same,relative viability,LU99A; first compound 0.2 µM,0.103
same,relative viability,NCI-H1651; first compound 0.002 µM,0.516
same,relative viability,NCI-H1651; first compound 0.006325 µM,0.481
same,relative viability,NCI-H1651; first compound 0.02 µM,0.371
same,relative viability,NCI-H1651; first compound 0.06325 µM,0.542
same,relative viability,NCI-H1651; first compound 0.2 µM,0.505
same,relative viability,NCI-H2085; first compound 0.002 µM,0.797
same,relative viability,NCI-H2085; first compound 0.006325 µM,0.717
same,relative viability,NCI-H2085; first compound 0.02 µM,0.553
same,relative viability,NCI-H2085; first compound 0.06325 µM,0.367
same,relative viability,NCI-H2085; first compound 0.2 µM,0.31
same,relative viability,NCI-H596; first compound 0.002 µM,0.61
same,relative viability,NCI-H596; first compound 0.006325 µM,0.553
same,relative viability,NCI-H596; first compound 0.02 µM,0.434
same,relative viability,NCI-H596; first compound 0.06325 µM,0.634
same,relative viability,NCI-H596; first compound 0.2 µM,0.574
same,relative viability,NCI-H1755; first compound 0.002 µM,0.751
same,relative viability,NCI-H1755; first compound 0.006325 µM,0.774
same,relative viability,NCI-H1755; first compound 0.02 µM,0.835
same,relative viability,NCI-H1755; first compound 0.06325 µM,0.57
same,relative viability,NCI-H1755; first compound 0.2 µM,0.319
same,relative viability,HCC-78; first compound 0.002 µM,0.381
same,relative viability,HCC-78; first compound 0.006325 µM,0.426
same,relative viability,HCC-78; first compound 0.02 µM,0.283
same,relative viability,HCC-78; first compound 0.06325 µM,0.519
same,relative viability,HCC-78; first compound 0.2 µM,0.356
same,relative viability,NCI-H3122; first compound 0.002 µM,0.991
same,relative viability,NCI-H3122; first compound 0.006325 µM,0.973
same,relative viability,NCI-H3122; first compound 0.02 µM,0.456
same,relative viability,NCI-H3122; first compound 0.06325 µM,0.787
same,relative viability,NCI-H3122; first compound 0.2 µM,0.067
same,relative viability,NCI-H322M; first compound 0.002 µM,0.83
same,relative viability,NCI-H322M; first compound 0.006325 µM,0.407
same,relative viability,NCI-H322M; first compound 0.02 µM,0.736
same,relative viability,NCI-H322M; first compound 0.06325 µM,0.486
same,relative viability,NCI-H322M; first compound 0.2 µM,0.417
same,relative viability,PC-3 [JPC-3]; first compound 0.002 µM,0.737
same,relative viability,PC-3 [JPC-3]; first compound 0.006325 µM,0.361
same,relative viability,PC-3 [JPC-3]; first compound 0.02 µM,0.491
same,relative viability,PC-3 [JPC-3]; first compound 0.06325 µM,0.381
same,relative viability,PC-3 [JPC-3]; first compound 0.2 µM,0.287
same,relative viability,COR-L23; first compound 0.002 µM,0.469
same,relative viability,COR-L23; first compound 0.006325 µM,0.364
same,relative viability,COR-L23; first compound 0.02 µM,0.396
same,relative viability,COR-L23; first compound 0.06325 µM,0.0788
same,relative viability,COR-L23; first compound 0.2 µM,0.0814
same,relative viability,NCI-H522; first compound 0.002 µM,0.81
same,relative viability,NCI-H522; first compound 0.006325 µM,0.904
same,relative viability,NCI-H522; first compound 0.02 µM,0.772
same,relative viability,NCI-H522; first compound 0.06325 µM,0.607
same,relative viability,NCI-H522; first compound 0.2 µM,0.354
same,relative viability,NCI-H460; first compound 0.002 µM,0.775
same,relative viability,NCI-H460; first compound 0.006325 µM,0.68
same,relative viability,NCI-H460; first compound 0.02 µM,0.237
same,relative viability,NCI-H460; first compound 0.06325 µM,0.0162
same,relative viability,NCI-H460; first compound 0.2 µM,0.0131
same,relative viability,H3255; first compound 0.002 µM,0.843
same,relative viability,H3255; first compound 0.02 µM,0.625
same,relative viability,H3255; first compound 0.06325 µM,0.745
same,relative viability,H3255; first compound 0.2 µM,0.248
same,relative viability,201T; first compound 0.002 µM,0.959
same,relative viability,201T; first compound 0.006325 µM,0.872
same,relative viability,201T; first compound 0.02 µM,0.768
same,relative viability,201T; first compound 0.06325 µM,0.913
same,relative viability,201T; first compound 0.2 µM,0.324
same,relative viability,NCI-H1650; first compound 0.002 µM,0.478
same,relative viability,NCI-H1650; first compound 0.006325 µM,0.516
same,relative viability,NCI-H1650; first compound 0.02 µM,0.388
same,relative viability,NCI-H1650; first compound 0.06325 µM,0.139
same,relative viability,NCI-H1650; first compound 0.2 µM,0.135
same,relative viability,NCI-H2087; first compound 0.002 µM,0.667
same,relative viability,NCI-H2087; first compound 0.006325 µM,0.609
same,relative viability,NCI-H2087; first compound 0.02 µM,0.656
same,relative viability,NCI-H2087; first compound 0.06325 µM,0.111
same,relative viability,NCI-H2087; first compound 0.2 µM,0.122
same,relative viability,NCI-H358; first compound 0.002 µM,0.662
same,relative viability,NCI-H358; first compound 0.006325 µM,0.66
same,relative viability,NCI-H358; first compound 0.02 µM,0.669
same,relative viability,NCI-H358; first compound 0.06325 µM,0.0646
same,relative viability,NCI-H358; first compound 0.2 µM,0.0598
same,relative viability,NCI-H650; first compound 0.002 µM,0.429
same,relative viability,NCI-H650; first compound 0.006325 µM,0.392
same,relative viability,NCI-H650; first compound 0.02 µM,0.298
same,relative viability,NCI-H650; first compound 0.06325 µM,0.158
same,relative viability,NCI-H650; first compound 0.2 µM,0.103
same,relative viability,SK-LU-1; first compound 0.002 µM,0.927
same,relative viability,SK-LU-1; first compound 0.006325 µM,0.596
same,relative viability,SK-LU-1; first compound 0.02 µM,0.615
same,relative viability,SK-LU-1; first compound 0.06325 µM,0.262
same,relative viability,SK-LU-1; first compound 0.2 µM,0.211
same,relative viability,HARA; first compound 0.002 µM,0.51
same,relative viability,HARA; first compound 0.006325 µM,0.504
same,relative viability,HARA; first compound 0.02 µM,0.591
same,relative viability,HARA; first compound 0.06325 µM,0.589
same,relative viability,HARA; first compound 0.2 µM,0.132
same,relative viability,NCI-H23; first compound 0.002 µM,0.632
same,relative viability,NCI-H23; first compound 0.006325 µM,0.481
same,relative viability,NCI-H23; first compound 0.02 µM,0.315
same,relative viability,NCI-H23; first compound 0.06325 µM,0.0969
same,relative viability,NCI-H23; first compound 0.2 µM,0.108
same,relative viability,HCC-366; first compound 0.002 µM,0.38
same,relative viability,HCC-366; first compound 0.006325 µM,0.35
same,relative viability,HCC-366; first compound 0.02 µM,0.18
same,relative viability,HCC-366; first compound 0.06325 µM,0.0252
same,relative viability,HCC-366; first compound 0.2 µM,0.0243
same,relative viability,NCI-H1793; first compound 0.002 µM,0.631
same,relative viability,NCI-H1793; first compound 0.006325 µM,0.556
same,relative viability,NCI-H1793; first compound 0.02 µM,0.271
same,relative viability,NCI-H1793; first compound 0.06325 µM,0.107
same,relative viability,NCI-H1793; first compound 0.2 µM,0.122

# Source: the supplement of paper PMC10307832
